Assay results reported in PubChem BioAssay AID330 (DTP/NCI, 2004).
Where “and” joins values, the source holds several entries; their conditions need not be identical. Equal entries are not always repeated. Toxic doses and inconclusive results are not listed.

Test system: P388 leukemia ip, CD2F1 mice, survival T/C
Test: NCI In Vivo Anticancer Drug Screen. Data for tumor model P388 Leukemia (intraperitoneal) in CD2F1 (CDF1) mice
Details: endpoint: median survival time, higher = longer survival
Method in brief: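 Mice carrying the transplanted tumor received test compound or vehicle. Survival was recorded in each group, and the value is the treated-group measurement divided by that of the vehicle-treated control group.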

[1] = dose: 50.0 mg/kg/injection, schedule: Q01DX005 (ip), vehicle: saline
[2] = dose: 60.0 mg/kg/injection, schedule: Q01DX005 (ip), vehicle: saline with Tween-80
[3] = dose: 120.0 mg/kg/injection, schedule: Q01DX005 (ip), vehicle: saline with Tween-80
[4] = dose: 240.0 mg/kg/injection, schedule: Q01DX005 (ip), vehicle: saline with Tween-80
[5] = dose: 50.0 mg/kg/injection, schedule: Q01DX005 (ip), vehicle: Klucel (hydroxypropylcellulose) (HPC)
[6] = dose: 100.0 mg/kg/injection, schedule: Q01DX005 (ip), vehicle: Klucel (hydroxypropylcellulose) (HPC)
[7] = dose: 200.0 mg/kg/injection, schedule: Q01DX005 (ip), vehicle: Klucel (hydroxypropylcellulose) (HPC)
[8] = dose: 50.0 mg/kg/injection, schedule: Q01DX009 (ip), vehicle: Klucel (hydroxypropylcellulose) (HPC)
[9] = dose: 100.0 mg/kg/injection, schedule: Q01DX009 (ip), vehicle: Klucel (hydroxypropylcellulose) (HPC)
[10] = dose: 25.0 mg/kg/injection, schedule: Q01DX009 (ip), vehicle: saline with Tween-80
[11] = dose: 50.0 mg/kg/injection, schedule: Q01DX009 (ip), vehicle: saline with Tween-80
[12] = dose: 200.0 mg/kg/injection, schedule: Q01DX009 (ip), vehicle: saline with Tween-80
[13] = dose: 100.0 mg/kg/injection, schedule: Q01DX009 (ip), vehicle: saline with Tween-80

COc1cc2c(c(OC)c1OC)-c1ccc(OC)c(=O)cc1[C@@H](NC(=O)CF)CC2
T/C (dose: 23.4 micrograms/kg/injection, schedule: Q01DX009 (ip), vehicle: saline): 121 % of control | T/C (dose: 93.7 micrograms/kg/injection, schedule: Q01DX009 (ip), vehicle: saline): 152 % of control | T/C (dose: 187.5 micrograms/kg/injection, schedule: Q01DX009 (ip), vehicle: saline): 152 % of control | T/C (dose: 250.0 micrograms/kg/injection, schedule: Q04DX003 (ip), vehicle: saline): 163 % of control | T/C (dose: 375.0 micrograms/kg/injection, schedule: Q01DX009 (ip), vehicle: saline): 161 % of control | T/C (dose: 500.0 micrograms/kg/injection, schedule: Q04DX003 (ip), vehicle: saline): 204 % of control | T/C (dose: 2000.0 micrograms/kg/injection, schedule: Q04DX003 (ip), vehicle: saline): 122 % of control

Nc1nc2c(c(=O)[nH]1)NC(CN(C(=O)CCCl)c1ccc(C(=O)NC(CCC(=O)O)C(=O)O)cc1)CN2 (stereo not given)
T/C (dose: 50.0 mg/kg/injection, schedule: Q01DX001 (ip), vehicle: alkali diluted with saline): 101 % of control | T/C (dose: 100.0 mg/kg/injection, schedule: Q01DX001 (ip), vehicle: alkali diluted with saline): 104 % of control | T/C (dose: 200.0 mg/kg/injection, schedule: Q01DX001 (ip), vehicle: alkali diluted with saline): 101 % of control

NC(CCC(=O)NC(CSSCC(NC(=O)CCC(N)C(=O)O)C(=O)O)C(=O)O)C(=O)O (stereo not given)
T/C (dose: 12.5 mg/kg/injection, schedule: Q01DX005 (ip), vehicle: saline): 94 % of control | T/C (dose: 25.0 mg/kg/injection, schedule: Q01DX005 (ip), vehicle: saline): 99 % of control | T/C [1]: 99 % of control

CC(C)CC(NC(=O)C(Cc1ccccc1)NC(=O)CNC(=O)CNC(=O)C(N)Cc1ccc(O)cc1)C(=O)O (stereo not given)
T/C (dose: 12.5 mg/kg/injection, schedule: Q01DX005 (ip), vehicle: water): 110 % of control | T/C (dose: 25.0 mg/kg/injection, schedule: Q01DX005 (ip), vehicle: water): 103 % of control | T/C (dose: 50.0 mg/kg/injection, schedule: Q01DX005 (ip), vehicle: water): 95 % of control | T/C (dose: 100.0 mg/kg/injection, schedule: Q01DX005 (ip), vehicle: water): 98 % of control | T/C (dose: 200.0 mg/kg/injection, schedule: Q01DX005 (ip), vehicle: water): 100 % of control

CC(C)(Oc1ccc(Cl)cc1)C(=O)NC1CC(C)(C)N(O)C(C)(C)C1
T/C [2]: 104 % of control | T/C [3]: 96 % of control | T/C [4]: 91 % of control

CC(C)NC(=O)OCc1c(COC(=O)NC(C)C)c(-c2ccc(Cl)c(Cl)c2)n2c1CS(=O)C2 (stereo not given)
T/C (dose: 12.5 mg/kg/injection, schedule: Q01DX005 (ip), vehicle: Klucel + Tween-80): 99 % of control | T/C (dose: 25.0 mg/kg/injection, schedule: Q01DX005 (ip), vehicle: Klucel + Tween-80): 97 % of control | T/C (dose: 50.0 mg/kg/injection, schedule: Q01DX005 (ip), vehicle: Klucel + Tween-80): 92 % of control | T/C (dose: 100.0 mg/kg/injection, schedule: Q01DX005 (ip), vehicle: Klucel + Tween-80): 89 % of control | T/C (dose: 200.0 mg/kg/injection, schedule: Q01DX005 (ip), vehicle: Klucel + Tween-80): 104 % of control and 89 % of control

Cc1ccc(S(=O)(=O)C(C#N)(CCC(=O)/C=C/c2ccccc2)CCC(=O)/C=C/c2ccccc2)cc1
T/C [5]: 99 % of control | T/C [6]: 92 % of control | T/C [7]: 92 % of control

Cc1cc2[nH]c3c(C#N)c(OC(=O)N(C)C)c(-c4ccccc4)c(=O)n3c2cc1C
T/C [2]: 97 % of control | T/C [3]: 90 % of control | T/C [4]: 92 % of control

C1CN(CC2CCC(CN3CCOCC3)O2)CCO1 (stereo not given)
T/C (dose: 3.12 mg/kg/injection, schedule: Q01DX005 (ip), vehicle: Klucel (hydroxypropylcellulose) (HPC)): 96 % of control | T/C (dose: 6.25 mg/kg/injection, schedule: Q01DX005 (ip), vehicle: Klucel (hydroxypropylcellulose) (HPC)): 97 % of control | T/C (dose: 12.5 mg/kg/injection, schedule: Q01DX005 (ip), vehicle: Klucel (hydroxypropylcellulose) (HPC)): 100 % of control | T/C (dose: 25.0 mg/kg/injection, schedule: Q01DX005 (ip), vehicle: Klucel (hydroxypropylcellulose) (HPC)): 114 % of control | T/C [5]: 96 % of control

COC(=O)C1c2ccccc2CC(=O)N1NC(C)=O (stereo not given)
T/C [8]: 104 % of control | T/C [9]: 101 % of control

CC(=O)CNc1ccccc1C(N)=O
T/C [5]: 101 % of control | T/C [6]: 95 % of control | T/C [7]: 104 % of control

Nc1nnnn1-n1cccc1
T/C (dose: 50.0 mg/kg/injection, schedule: Q01DX005 (ip), vehicle: saline with Tween-80): 103 % of control | T/C (dose: 100.0 mg/kg/injection, schedule: Q01DX005 (ip), vehicle: saline with Tween-80): 103 % of control | T/C (dose: 200.0 mg/kg/injection, schedule: Q01DX005 (ip), vehicle: saline with Tween-80): 103 % of control

O=C(NC1CCCCC1)OCc1c(COC(=O)NC2CCCCC2)c(-c2ccc(Cl)c(Cl)c2)n2c1CCC2
T/C (dose: 6.25 mg/kg/injection, schedule: Q01DX009 (ip), vehicle: Klucel (hydroxypropylcellulose) (HPC)): 94 % of control | T/C (dose: 12.5 mg/kg/injection, schedule: Q01DX009 (ip), vehicle: Klucel (hydroxypropylcellulose) (HPC)): 119 % of control | T/C [10]: 150 % of control and 168 % of control | T/C [8]: 161 % of control | T/C [11]: 166 % of control and 170 % of control and 174 % of control | T/C [9]: 189 % of control | T/C [12]: 91 % of control

N#CC(=C1N=c2ccccc2=N1)c1[nH]c(O)c2ccccc12
T/C (dose: 6.25 mg/kg/injection, schedule: Q01DX009 (ip), vehicle: saline with Tween-80): 93 % of control | T/C (dose: 12.5 mg/kg/injection, schedule: Q01DX009 (ip), vehicle: saline with Tween-80): 91 % of control | T/C [10]: 94 % of control

COC(=O)C1(C)Cc2cc(OC(C)=O)c(OC(C)=O)cc2N1 (stereo not given)
T/C (dose: 25.0 mg/kg/injection, schedule: Q01DX001 (ip), vehicle: Klucel (hydroxypropylcellulose) (HPC)): 109 % of control | T/C (dose: 50.0 mg/kg/injection, schedule: Q01DX001 (ip), vehicle: Klucel (hydroxypropylcellulose) (HPC)): 100 % of control | T/C (dose: 100.0 mg/kg/injection, schedule: Q01DX001 (ip), vehicle: Klucel (hydroxypropylcellulose) (HPC)): 109 % of control | T/C (dose: 200.0 mg/kg/injection, schedule: Q01DX001 (ip), vehicle: Klucel (hydroxypropylcellulose) (HPC)): 114 % of control

O=C(c1ccncc1)c1cccc(Cl)c1
T/C [11]: 103 % of control | T/C [13]: 108 % of control | T/C [12]: 104 % of control

CN1CCc2cc3c(c4c2C1C(O)c1ccccc1-4)OCO3 (stereo not given)
T/C (dose: 0.12 mg/kg/injection, schedule: Q01DX009 (ip), vehicle: acid diluted with saline): 109 % of control | T/C (dose: 0.25 mg/kg/injection, schedule: Q01DX009 (ip), vehicle: acid diluted with saline): 97 % of control | T/C (dose: 2.0 mg/kg/injection, schedule: Q01DX009 (ip), vehicle: acid diluted with saline): 92 % of control | T/C (dose: 4.0 mg/kg/injection, schedule: Q01DX009 (ip), vehicle: acid diluted with saline): 108 % of control

Brc1ccc(N=C=C(c2ccccc2)c2ccccc2)cc1
T/C [11]: 95 % of control | T/C [13]: 100 % of control | T/C [12]: 104 % of control

COc1c(C(C)C)ccc2c1CCC1=C3COC(=O)C3CCC12C (stereo not given)
T/C (dose: 6.25 mg/kg/injection, schedule: Q01DX009 (ip), vehicle: DMSO): 109 % of control | T/C (dose: 12.5 mg/kg/injection, schedule: Q01DX009 (ip), vehicle: DMSO): 99 % of control | T/C (dose: 25.0 mg/kg/injection, schedule: Q01DX009 (ip), vehicle: DMSO): 97 % of control

COc1cccc2c1N(COC(C)=O)C(=O)C1C=CC(C)(C)OC21 (stereo not given)
T/C (dose: 8.0 mg/kg/injection, schedule: Q01DX009 (ip), vehicle: Klucel (hydroxypropylcellulose) (HPC)): 97 % of control | T/C (dose: 16.0 mg/kg/injection, schedule: Q01DX009 (ip), vehicle: Klucel (hydroxypropylcellulose) (HPC)): 95 % of control | T/C (dose: 32.0 mg/kg/injection, schedule: Q01DX009 (ip), vehicle: Klucel (hydroxypropylcellulose) (HPC)): 97 % of control | T/C (dose: 64.0 mg/kg/injection, schedule: Q01DX009 (ip), vehicle: Klucel (hydroxypropylcellulose) (HPC)): 92 % of control

CC(C)(C)OC(=O)N1CC(O)CC1C(=O)O (stereo not given)
T/C [1]: 91 % of control | T/C (dose: 100.0 mg/kg/injection, schedule: Q01DX005 (ip), vehicle: saline): 91 % of control

COc1ccc2cc1Oc1ccc(cc1)CC1c3c(cc(OC)c(OC)c3Oc3cc4c(cc3OC)CCN(C)C4C2)CCN1C (stereo not given)
T/C (dose: 100.0 mg/kg/injection, schedule: Q01DX001 (ip), vehicle: saline with Tween-80): 103 % of control | T/C (dose: 200.0 mg/kg/injection, schedule: Q01DX001 (ip), vehicle: saline with Tween-80): 92 % of control
